Experimental findings from patent publication US9414596B2, “Metalloenzyme inhibitor compounds” (Viamet Pharmaceuticals, Inc., priority 2012, dated 2016) are described below.

For one experiment, the system named is C. albicans. The experiment can be described thus: Minimum Inhibitory Concentration (MIC) (C. albicans), CLSI M27-A2. The format is cell-based. As to conditions: Candida albicans, 48 h, read-out: Candida MIC Rating. How it is done:
A. Minimum Inhibitory Concentration (MIC) (C. albicans) Compounds of the present disclosure were assessed for their ability to inhibit the growth of common strains of fungus, C. albicans using a standardized procedure (CLSI M27-A2). Stock solutions of the test compounds and standards were prepared in DMSO at 1,600 μg/mL (C. albicans). Eleven, serial, one-half dilutions of compounds were prepared in 96-well plates in RPMI+MOPS. The assay concentration ranges were 8-0.001 μg/mL (C. albicans). Cell suspensions of C. albicans were prepared and added to each well at concentrations of approximately 3.7×10^3 colony-forming-units per milliliter (cfu/mL). All testing was in duplicate. The inoculated plates were incubated for approximately 48 h at 35±1° C. At the completion of incubation the wells of each plate were evaluated visually for the presence of fungal growth. […] For QC purposes C. krusei isolate ATCC 6258 (4.0×10^3 cfu/mL) was included in the VOR assay.

For experiment [1], the system named is Septoria tritici (ATCC 26517). Description: Minimum Inhibitory Concentration (MIC) (Septoria tritici), CLSI-based microdilution. The format is cell-based. The conditions noted are these: S. tritici ATCC 26517, seven days at 22° C. in the dark, MIC = 50% reduction in growth, visual; for MIC: Zymoseptoria tritici, ATCC26517, 168 h, read-out: Septoria MIC Rating. As to the method: B. Minimum Inhibitory Concentration (MIC) (Septoria tritici)
Compounds of the present disclosure were assessed for their ability to inhibit the growth of a common strain of the fungal plant pathogen Septoria tritici (ATCC 26517) using a procedure based on a Clinical and Laboratory Standards Institute (CLSI) microdilution assay protocol for filamentous fungi.
Stock solutions of the test compounds and standards were prepared in DMSO at 6400 μg/mL. Each stock solution was used to prepare a 2-fold dilution series ranging from 16 to 0.016 μg/mL (total of 11 compound concentrations) in RPMI-1640 (Roswell Park Memorial Institute) medium containing 3-(N-morpholino)propanesulfonic acid (MOPS) buffer and 2% DMSO. A 100 μL aliquot of the dilutions was added to columns 1 (16 μg/mL compound) through 11 (0.016 μg/mL compound) of a 96-well microtiter plate. This format was replicated in a second row of the microtiter plate. Thus, each microtiter plate could include 11 concentrations of four test or control compounds replicated twice. A 100 μL aliquot of RPMI-1640/MOPS/2% DMSO medium was added to column 12 (no compound control) of the microtiter plate.
A fresh culture of S. tritici was used to prepare a solution of approximately 5×10^4 colony-forming units per milliliter (cfu/mL) in RPMI/MOPS medium without DMSO. A 100 μL aliquot of this solution was added to all 96 wells in the microtiter plate. […] The assay plates were incubated at 22° C. for seven days in the dark without shaking.
For orientation: In broth dilution the organism is exposed to a series of concentrations in liquid medium.

[2] abbreviates: C. albicans, approximately 48 h at 35±1° C., MIC = about 50% growth reduction, visual.

≈ marks a conversion by molar mass, not a printed value. Like-named read-outs stand apart in the source and are kept apart here. Where only a bound is given, the exact number is not on record here.

For the compound `CC(F)(c1ccc(-c2ccc(F)cc2)cn1)[C@](O)(Cn1cnnn1)c1ccc(F)cc1F` (stereo in doubt) [Example 50, 2-(2,4-Difluorophenyl)-3-fluoro-3-(5-(4-fluorophenyl)pyridin-2-yl)-1-(1H-tetrazol-1-yl)butan-2-ol], in the experiment on C. albicans (setting [2]), the minimum inhibitory concentration (MIC) (as a rule, the least concentration at which growth counts as inhibited) is 1.5 to 4 µg/mL (≈ 3.38 to 9.02 µM).
As for `OC(Cn1cnnn1)(c1ccc(F)cc1F)C(F)(F)c1ccc(-c2ccc(OCC(F)(F)C(F)(F)F)cc2)cn1` (centres unmarked) [Example 12, 2-(2,4-Difluorophenyl)-1,1-difluoro-1-(5-(4-(2,2,3,3,3-pentafluoropropoxy)phenyl)pyridin-2-yl)-3-(1H-tetrazol-1-yl)propan-2-ol], the MIC with C. albicans is less than 0.5 µg/mL.
As to `OC(Cc1cc[nH]n1)(c1ccc(F)cc1F)C(F)(F)c1ccc(-c2ccc(OC(F)(F)F)cc2)cn1` (centres unmarked) [Example 15, 2-(2,4-Difluorophenyl)-1,1-difluoro-3-(1H-pyrazol-3-yl)-1-(5-(4-(trifluoromethoxy)phenyl)-pyridin-2-yl)propan-2-ol], in the experiment on C. albicans, the MIC was less than 0.5 µg/mL.
With `OC(Cn1cnnn1)(c1ccc(F)cc1F)C(F)(F)c1ccc(-c2ccc(SC(F)F)cc2)cn1` (centres unmarked) [Example 40, 1-(5-(4-((Difluoromethyl)thio)phenyl)pyridin-2-yl)-2-(2,4-difluorophenyl)-1,1-difluoro-3-(1H-tetrazol-1-yl)propan-2-ol], the MIC in experiment [1] is less than 0.5 µg/mL.
With `OC(Cn1cnnn1)(c1ccc(F)cc1F)C(F)(F)c1ccc(-c2ccc(CC(F)(F)F)cc2)cn1` (centres unmarked) [Example 41, 2-(2,4-Difluorophenyl)-1,1-difluoro-3-(1H-tetrazol-1-yl)-1-(5-(4-(2,2,2-trifluoroethyl)phenyl)pyridin-2-yl)propan-2-ol], in experiment [1], the MIC is less than 0.5 µg/mL.
Same read-out and setting: to `CNC(=O)c1ccc(-c2ccc(C(F)(F)C(O)(Cn3cnnn3)c3ccc(F)cc3F)nc2)cc1` (centres unmarked) [Example 42, 4-(6-(2-(2,4-Difluorophenyl)-1,1-difluoro-2-hydroxy-3-(1H-tetrazol-1-yl)propyl)pyridin-3-yl)-N-methylbenzamide] belongs greater than 4 µg/mL; to `OC(Cn1cnnn1)(c1ccc(F)cc1F)C(F)(F)c1ccc(-c2ccc(OCCC(F)(F)F)cc2)cn1` (centres unmarked) [Example 44, 2-(2,4-Difluorophenyl)-1,1-difluoro-3-(1H-tetrazol-1-yl)-1-(5-(4-(3,3,3-trifluoropropoxy)phenyl)pyridin-2-yl)propan-2-ol], 0.5 to 1.5 µg/mL (≈ 0.923 to 2.77 µM).
Still for that read-out and setting: to `OC(Cn1cnnn1)(c1ccc(F)cc1F)C(F)(F)c1ccc(-c2ccc(SCC(F)(F)F)cc2)cn1` (centres unmarked) [Example 45, 2-(2,4-Difluorophenyl)-1,1-difluoro-3-(1H-tetrazol-1-yl)-1-(5-(4-((2,2,2-trifluoroethyl)thio)phenyl)pyridin-2-yl)propan-2-ol] belongs less than 0.5 µg/mL.
Still for that read-out and setting: to `CC(F)(c1ccc(-c2ccc(OC(F)(F)F)cc2)cn1)C(O)(Cn1cnnn1)c1ccc(F)cc1F` (centres unmarked) [Example 46, 2-(2,4-Difluorophenyl)-3-fluoro-1-(1H-tetrazol-1-yl)-3-(5-(4-(trifluoromethoxy)phenyl)-pyridin-2-yl)butan-2-ol] belongs less than 0.5 µg/mL.
Regarding `CC(F)(c1ccc(-c2ccc(OC(F)(F)F)cc2)cn1)C(O)(Cn1cnnn1)c1ccc(F)cc1F` (centres unmarked) [Example 47, 2-(2,4-Difluorophenyl)-3-fluoro-1-(1H-tetrazol-1-yl)-3-(5-(4-(trifluoromethoxy)phenyl)-pyridin-2-yl)butan-2-ol], the “Septoria MIC Rating” value in experiment [1] is reported as “B (>0.5-1.5)”.
Regarding `CC(F)(c1ccc(-c2ccc(C(F)(F)F)cc2)cn1)C(O)(Cn1cnnn1)c1ccc(F)cc1F` (centres unmarked) [Example 53, 2-(2,4-Difluorophenyl)-3-fluoro-1-(1H-tetrazol-1-yl)-3-(5-(4-(trifluoromethyl)phenyl)pyridin-2-yl)butan-2-ol], the minimum inhibitory concentration (MIC) in experiment [1] lay within 1.5 to 4 µg/mL (≈ 3.04 to 8.11 µM).
Regarding `CC(F)(c1ccc(-c2ccc(Cl)cc2)cn1)C(O)(Cn1cnnn1)c1ccc(F)cc1F` (centres unmarked) [Example 55, 3-(5-(4-Chlorophenyl)pyridin-2-yl)-2-(2,4-difluorophenyl)-3-fluoro-1-(1H-tetrazol-1-yl)butan-2-ol], the MIC in experiment [1] lay in the range of 1.5 to 4 µg/mL (≈ 3.26 to 8.7 µM).
The same measure, in the same setting: to `CC(F)(c1ccc(-c2ccc(OCC(F)(F)F)cc2)cn1)C(O)(Cn1cnnn1)c1ccc(F)cc1F` (centres unmarked) [Example 57, 2-(2,4-Difluorophenyl)-3-fluoro-1-(1H-tetrazol-1-yl)-3-(5-(4-(2,2,2-trifluoroethoxy)phenyl)pyridin-2-yl)butan-2-ol] belongs 1.5 to 4 µg/mL (≈ 2.87 to 7.64 µM).
In the case of `O=P(O)(O)OC(Cn1cnnn1)(c1ccc(F)cc1F)C(F)(F)c1ccc(-c2ccc(OCC(F)(F)F)cc2)cn1` (centres unmarked) [Example 58, 2-(2,4-difluorophenyl)-1,1-difluoro-3-(1H-tetrazol-1-yl)-1-(5-(4-(2,2,2-trifluoroethoxy)phenyl)pyridin-2-yl)propan-2-yl dihydrogen phosphate], the MIC in the experiment with C. albicans (setting [2]) is less than 0.5 µg/mL.
